Results reported in patent US11352349B2, “Type II topoisomerase inhibitors and methods of making and using thereof” (Ohio State Innovation Foundation, priority 2017, dated 2022).
≈ marks a conversion by molar mass, not a printed value. Like-named read-outs stand apart in the source and are kept apart here.

What was measured:
S. aureus ATCC 29213 = assay: MIC by broth microdilution (CLSI), quality control strain S. aureus ATCC 29213; format: cell-based, Staphylococcus aureus; settings: Staphylococcus aureus, ATCC29213, S. aureus ATCC 29213; multiple values when multiple MIC assays were conducted
USA 300 strain of MRSA = assay: MIC by broth microdilution, USA 300 strain of MRSA; format: cell-based, Staphylococcus aureus; settings: Staphylococcus aureus, multiple values when multiple MIC assays were conducted, read-out: MIC USA300
Description: Minimum inhibitory concentrations were determined using the quality control strain S. aureus ATCC 29213 (Table 1) by the broth microdilution method according to guidelines of the Clinical and Laboratory Standards Institute (CLSI) (Cockerill, F. R.; et al., 2012, Methods for dilution antimicrobial susceptibility tests for bacteria that grow aerobically; approved standard-ninth edition. MA07-A9. Clinical and Laboratory Standard Institute, Wayne, Pa.). […] MICs for selected compounds were also determined using a USA 300 strain of MRSA (Hidron, et al., Lancet Infect. Dis. 2009, 9:384-392). Vancomycin was used as an additional control.

[1] = target: T1, Staphylococcus aureus gyrase (Staphylococcus aureus, UniProt P0A0K8+P20831); assay: Staphylococcus aureus gyrase supercoiling assay; format: biochemical
T1 construct: purchased Inspiralis, Norwich, UK
Description: (§1) A subset of analogs was used to assess the degree of inhibition of DNA gyrase or TopoIV (Inspiralis, Norwich, UK), both to establish the mechanism of action and to evaluate the relative balance of inhibitory activities (Table 1). A subset of compound was also assayed to determine the degree of inhibition of human topoisomerase II (Inspiralis, Norwich, UK)).
(§2) In all experiments, the activity of the enzymes was determined prior to the testing of the compounds and 1 unit (U) was defined as the amount of enzyme required to just fully supercoil, relax or decatenate the substrate (see explanation of gels). This amount of enzyme was initially used in determination of control inhibitor activity. These experiments were performed in duplicate.
(§3) For all assays the final DMSO concentration was 1%. 10 mM stocks of the compounds were serially diluted into 10% DMSO at 1 mM, 0.5 mM, 0.25 mM, 0.1 mM, 0.05 mM, 0.01 mM, 0.005 mM, 0.001 mM, 0.0005 mM, 0.0001 mM and 0.00005 mM. 3.0 μl of each dilution was added to a 30 μl assay.
(§4) Bands were visualised by ethidium staining for 20 minutes and destaining for 20 minutes. Gels were scanned using documentation equipment (GeneGenius, Syngene, Cambridge, UK) and % inhibition levels (where appropriate) were obtained with gel scanning software. (GeneTools, Syngene, Cambridge, UK)
Staphylococcus aureus gyrase supercoiling
1 U of DNA gyrase was incubated with 0.5 μg of relaxed pBR322 DNA in a 30 μl reaction at 37° C. for 30 minutes under the following conditions: 40 mM HEPES. KOH (pH 7.6), 10 mM magnesium acetate, 10 mM DTT, 2 mM ATP, 500 mM potassium glutamate and 0.05 mg/ml BSA.
Each reaction was stopped by the addition of 30 μl chloroform/iso-amyl alcohol (26:1) and 30 μl Stop Dye (40% sucrose (w/v), 100 mM Tris.HCl (pH 7.5), 10 mM EDTA, 0.5 μg/ml bromophenol blue), before being loaded on a 1.0% TAE gel run at 70V for 2 hours.

[2] = target: T2, Staphylococcus aureus Topo IV (Staphylococcus aureus, UniProt P0C1S7+P0C1U9); assay: Staphylococcus aureus Topo IV decatenation assay; format: biochemical
T2 construct: purchased Inspiralis, Norwich, UK
Description: as §1, §2, §3, §4
Staphylococcus aureus Topo IV Decatenation Assay
1 U of Topo IV was incubated with 200 ng kDNA DNA in a 30 μl reaction at 37° C. for 30 minutes under the following conditions: 50 mM Tris.HCl (7.5), 5 mM MgCl2, 5 mM DTT, 1.5 mM ATP, 350 mM potassium glutamate and 0.05 mg/ml BSA.
Each reaction was stopped by the addition of 30 μl chloroform/iso-amyl alcohol (26:1) and 30 μl Stop Dye, before being loaded on a 1.0% TAE gel run at 70V for 2 hours.

human topo II = target: T3, human topo II (Homo sapiens, UniProt P11388); assay: Topoisomerase II (alpha) decatenation assay; format: biochemical; settings: activity remaining at 100 μM compound; read-out: hTopoll (% activity remaining at 100 μM)
T3 construct: purchased Inspiralis, Norwich, UK
Description: as §1, §2, §3, §4
Topoisomerase II (Alpha) Decatenation Assay
Each reaction was stopped by the addition of 30 μl chloroform/iso-amyl alcohol (26:1) and 30 μl Stop Dye, before being loaded on a 1.0% TAE gel run at 90V for 2 hours.

T1 sequence (P20831 whole entry): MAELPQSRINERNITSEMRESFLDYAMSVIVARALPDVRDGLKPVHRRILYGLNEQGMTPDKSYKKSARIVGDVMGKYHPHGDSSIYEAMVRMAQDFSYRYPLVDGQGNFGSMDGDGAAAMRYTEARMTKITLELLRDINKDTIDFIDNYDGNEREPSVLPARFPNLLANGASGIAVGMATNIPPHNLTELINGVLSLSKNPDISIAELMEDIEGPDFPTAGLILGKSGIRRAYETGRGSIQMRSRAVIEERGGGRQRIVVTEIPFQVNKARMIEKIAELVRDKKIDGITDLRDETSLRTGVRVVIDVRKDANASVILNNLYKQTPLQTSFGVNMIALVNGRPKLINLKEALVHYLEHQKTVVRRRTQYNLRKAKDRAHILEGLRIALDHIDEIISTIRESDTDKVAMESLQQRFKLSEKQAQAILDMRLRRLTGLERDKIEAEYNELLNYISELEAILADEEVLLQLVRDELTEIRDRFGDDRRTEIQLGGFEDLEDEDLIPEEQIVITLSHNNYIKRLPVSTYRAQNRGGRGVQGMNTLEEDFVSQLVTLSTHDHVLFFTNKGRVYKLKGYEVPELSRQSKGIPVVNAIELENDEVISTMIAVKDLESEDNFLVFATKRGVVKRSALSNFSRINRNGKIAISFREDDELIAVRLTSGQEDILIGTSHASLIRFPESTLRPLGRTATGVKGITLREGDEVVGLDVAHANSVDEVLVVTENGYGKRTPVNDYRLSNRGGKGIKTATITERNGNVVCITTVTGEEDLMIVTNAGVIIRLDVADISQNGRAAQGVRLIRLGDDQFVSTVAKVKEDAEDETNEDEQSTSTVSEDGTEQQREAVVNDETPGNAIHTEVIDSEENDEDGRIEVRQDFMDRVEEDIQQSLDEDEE
T1 sequence (P0A0K8 whole entry): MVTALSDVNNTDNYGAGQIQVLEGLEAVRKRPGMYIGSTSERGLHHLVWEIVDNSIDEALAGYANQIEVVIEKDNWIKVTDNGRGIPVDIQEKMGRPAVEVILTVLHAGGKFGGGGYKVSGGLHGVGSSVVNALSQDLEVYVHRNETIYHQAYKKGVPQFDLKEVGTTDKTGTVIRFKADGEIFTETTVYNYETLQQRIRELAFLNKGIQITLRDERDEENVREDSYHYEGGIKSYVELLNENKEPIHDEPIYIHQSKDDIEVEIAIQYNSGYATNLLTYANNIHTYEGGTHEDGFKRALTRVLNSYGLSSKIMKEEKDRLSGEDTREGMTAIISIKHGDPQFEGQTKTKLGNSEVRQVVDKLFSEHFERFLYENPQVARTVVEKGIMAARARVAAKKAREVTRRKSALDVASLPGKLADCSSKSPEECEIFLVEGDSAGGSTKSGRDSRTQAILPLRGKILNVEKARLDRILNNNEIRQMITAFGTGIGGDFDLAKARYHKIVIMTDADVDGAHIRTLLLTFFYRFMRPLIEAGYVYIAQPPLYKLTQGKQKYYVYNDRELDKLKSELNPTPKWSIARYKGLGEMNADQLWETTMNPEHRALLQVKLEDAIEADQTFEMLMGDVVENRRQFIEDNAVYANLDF
T2 sequence (P0C1S7 whole entry): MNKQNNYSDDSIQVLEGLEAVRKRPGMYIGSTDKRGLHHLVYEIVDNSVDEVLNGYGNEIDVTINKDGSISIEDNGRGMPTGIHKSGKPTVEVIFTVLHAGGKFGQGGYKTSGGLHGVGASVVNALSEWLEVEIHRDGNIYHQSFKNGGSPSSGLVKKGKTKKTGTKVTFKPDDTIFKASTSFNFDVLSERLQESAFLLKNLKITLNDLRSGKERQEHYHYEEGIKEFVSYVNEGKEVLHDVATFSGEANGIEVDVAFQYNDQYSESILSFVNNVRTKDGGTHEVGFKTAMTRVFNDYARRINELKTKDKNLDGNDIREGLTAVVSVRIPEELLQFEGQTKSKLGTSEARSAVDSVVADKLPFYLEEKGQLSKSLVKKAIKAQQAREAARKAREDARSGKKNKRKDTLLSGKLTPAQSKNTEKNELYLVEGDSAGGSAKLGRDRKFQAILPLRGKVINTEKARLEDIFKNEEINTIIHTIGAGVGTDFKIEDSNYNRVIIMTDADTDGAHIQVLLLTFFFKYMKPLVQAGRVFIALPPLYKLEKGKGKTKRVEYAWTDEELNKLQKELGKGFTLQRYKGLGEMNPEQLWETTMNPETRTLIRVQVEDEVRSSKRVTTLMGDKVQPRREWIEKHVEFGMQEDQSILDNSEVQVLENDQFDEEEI
T2 sequence (P0C1U9 whole entry): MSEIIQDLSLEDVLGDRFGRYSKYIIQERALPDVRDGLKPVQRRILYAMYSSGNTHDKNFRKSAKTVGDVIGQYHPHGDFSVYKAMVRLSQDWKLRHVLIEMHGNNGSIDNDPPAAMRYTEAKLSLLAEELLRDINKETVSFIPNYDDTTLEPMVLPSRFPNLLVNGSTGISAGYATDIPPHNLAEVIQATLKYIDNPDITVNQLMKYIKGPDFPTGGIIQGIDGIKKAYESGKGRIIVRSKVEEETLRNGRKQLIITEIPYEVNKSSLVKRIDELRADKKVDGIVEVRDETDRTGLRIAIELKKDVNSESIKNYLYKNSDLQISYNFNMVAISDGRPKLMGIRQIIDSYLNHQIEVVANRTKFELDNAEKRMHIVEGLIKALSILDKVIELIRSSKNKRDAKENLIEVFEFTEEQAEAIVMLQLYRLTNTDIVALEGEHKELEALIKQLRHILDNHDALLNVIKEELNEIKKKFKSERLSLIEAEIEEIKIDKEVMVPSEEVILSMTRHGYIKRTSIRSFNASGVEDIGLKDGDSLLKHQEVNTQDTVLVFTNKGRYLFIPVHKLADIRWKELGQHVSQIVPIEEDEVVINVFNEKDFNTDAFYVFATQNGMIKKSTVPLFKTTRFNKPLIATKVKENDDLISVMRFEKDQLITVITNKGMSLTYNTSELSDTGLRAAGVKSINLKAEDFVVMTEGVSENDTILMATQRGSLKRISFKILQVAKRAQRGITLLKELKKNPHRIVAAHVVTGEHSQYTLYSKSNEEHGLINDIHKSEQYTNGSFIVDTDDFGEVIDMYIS
T3 sequence (P11388 whole entry): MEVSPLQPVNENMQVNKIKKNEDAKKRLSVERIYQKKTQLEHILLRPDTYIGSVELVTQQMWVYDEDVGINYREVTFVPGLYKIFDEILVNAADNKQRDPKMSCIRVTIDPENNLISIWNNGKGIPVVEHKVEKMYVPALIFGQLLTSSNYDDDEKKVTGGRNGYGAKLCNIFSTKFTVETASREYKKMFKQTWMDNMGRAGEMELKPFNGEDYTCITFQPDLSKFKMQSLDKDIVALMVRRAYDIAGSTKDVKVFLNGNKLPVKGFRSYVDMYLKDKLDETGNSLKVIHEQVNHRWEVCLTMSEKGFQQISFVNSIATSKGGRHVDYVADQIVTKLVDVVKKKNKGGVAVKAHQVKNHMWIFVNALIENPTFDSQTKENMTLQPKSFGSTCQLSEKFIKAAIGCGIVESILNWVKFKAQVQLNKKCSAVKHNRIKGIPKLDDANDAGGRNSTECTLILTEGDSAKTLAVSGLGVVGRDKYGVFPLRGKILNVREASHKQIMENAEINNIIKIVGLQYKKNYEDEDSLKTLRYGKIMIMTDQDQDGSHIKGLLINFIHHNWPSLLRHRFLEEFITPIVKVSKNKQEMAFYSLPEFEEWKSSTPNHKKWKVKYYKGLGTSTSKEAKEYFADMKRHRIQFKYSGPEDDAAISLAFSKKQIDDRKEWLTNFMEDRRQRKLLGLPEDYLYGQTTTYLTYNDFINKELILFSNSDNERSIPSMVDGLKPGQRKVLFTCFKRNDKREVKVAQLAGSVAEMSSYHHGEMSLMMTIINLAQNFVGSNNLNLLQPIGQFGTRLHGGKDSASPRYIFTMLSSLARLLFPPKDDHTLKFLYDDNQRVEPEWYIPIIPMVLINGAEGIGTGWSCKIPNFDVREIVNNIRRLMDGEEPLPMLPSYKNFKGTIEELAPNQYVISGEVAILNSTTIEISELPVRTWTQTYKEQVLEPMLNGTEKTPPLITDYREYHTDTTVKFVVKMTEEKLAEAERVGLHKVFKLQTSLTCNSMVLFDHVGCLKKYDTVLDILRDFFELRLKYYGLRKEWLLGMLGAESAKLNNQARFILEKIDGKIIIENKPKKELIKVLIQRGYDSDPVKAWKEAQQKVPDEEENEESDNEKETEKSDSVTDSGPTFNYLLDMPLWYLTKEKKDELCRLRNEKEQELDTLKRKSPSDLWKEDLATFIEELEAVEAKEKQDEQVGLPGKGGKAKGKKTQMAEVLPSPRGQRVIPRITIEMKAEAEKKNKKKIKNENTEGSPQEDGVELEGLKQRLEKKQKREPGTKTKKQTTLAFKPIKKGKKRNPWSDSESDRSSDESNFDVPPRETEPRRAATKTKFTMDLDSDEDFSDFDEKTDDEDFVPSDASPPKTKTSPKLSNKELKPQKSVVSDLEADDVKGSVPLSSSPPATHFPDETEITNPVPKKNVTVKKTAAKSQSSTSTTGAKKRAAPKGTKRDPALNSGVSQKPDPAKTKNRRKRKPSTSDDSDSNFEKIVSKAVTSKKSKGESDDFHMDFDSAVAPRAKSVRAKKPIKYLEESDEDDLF

Row | SMILES | MIC (S. aureus ATCC 29213) [µg/mL] | MIC (USA 300 strain of MRSA) [µg/mL] | IC50 [1] [nM] | IC50 [2] [nM] | remaining activity at 100 µM (human topo II) [%] | IC50 ([1]; S. aureus DNA gyrase supercoiling, read-out: Gyrase IC50) [nM] | IC50 ([2]; S. aureus Topo IV decatenation, read-out: TopolV Decat IC50) [nM]
1 | COc1ccc2ncc(F)c(CC[C@H]3OC[C@H](NCc4ccc5c(n4)NC(=O)CO5)CO3)c2n1 [AB-0060] | 0.125 (≈ 0.266 µM) | 0.25 (≈ 0.533 µM) | 130 | 5000 to 10000 | 83.1 |  | 
2 | COc1ccc2nccc(CC[C@H]3OC[C@H](NC/C=C/c4ccccc4)CO3)c2c1 [AB-0051] | 1 (≈ 2.47 µM) | 1 (≈ 2.47 µM) |  |  | 93.7 | 420 | 50000 to 100000
